Data reported in patent US20130017540A1, “IDENTIFICATION OF MUTATION TYPES ASSOCIATED WITH ACQUIRED RESISTANCE AND METHODS FOR USING SAME” (priority 2011, published 2013).

Test system: KCL-22 cells
Assay: Soft agar colony formation assay with imatinib
Assay type: cell-based
Settings: 2.5 μM imatinib, one million KCL-22 cells per well, 3 weeks
Description: One million KCL-22 cells were seeded per well in triplicate and incubated for 3 weeks. Plates were then stained with 0.005% Crystal Violet for 1 hour, and colonies were scored by microscope.

Q: For Cc1ccc(NC(=O)c2ccc(CN3CCN(C)CC3)cc2)cc1Nc1nccc(-c2cccnc2)n1 [imatinib], which “T315I mutation rate on soft agar, μ” value is on record?
A: 2.40 × 10^−4 T315I mutations incurred per BCR-ABL fusion gene

Q: And the “T315I mutation rate on soft agar, μ” value (listed as Imatinib)?
A: 2.40 × 10^−4 ± 2.89 × 10^−5 T315I mutations incurred per BCR-ABL fusion gene
